Reference: publication PMC10584170, “Machine learning-based phenotypic imaging to characterise the targetable biology of Plasmodium falciparum male gametocytes for the development of transmission-blocking antimalarials” (PLOS Pathogens, 2023)
pIC50: −log10 of the molar value. Where two headings read alike, the source gives them in different places.

What was measured:
[1] = system: P. falciparum female gametocytes; test: P. falciparum Dual Gamete Formation Assay (PfDGFA), female readout (Pfs25-positive female gametes); format: cell-based, Plasmodium falciparum NF54; conditions: for Selectivity ratio F: HepG2 Tox50 versus female IC50; for inhibition at 2 µM / pIC50: Plasmodium falciparum; for inhibition at 2 µM: 24h preincubation with gametocytes; for pIC50: PfDGFA, 24 h incubation with gametocytes before induction, female gamete readout, read-out: Female IC50
Experimental: (§1) P. falciparum NF54 (originally isolated from an imported malaria case in the Netherlands in the 1980s; BEI Resources, cat. No. MRA-1000) strain asexual parasites were maintained between 0.3–5% parasitaemia by regular passage in complete culture medium (RPMI supplemented with 25 mM HEPES, 50 μg ml^−1 hypoxanthine, 4.8 g l^−1 NaHCO3, 2mM L-glutamine, 5% pooled type AB serum, 0.5% Albumax II (Gibco)) at 4% haematocrit in washed whole blood (National Blood and Transfusion Service or Centro de Transfusiones de la Comunidad de Madrid CTCM) under a 1% O2/3% CO2/96% N2 environment. Gametocytes were induced by seeding culture flasks at 2% parasitaemia/4% haematocrit and subjecting them to daily medium changes for 14 days whilst maintaining a temperature of 37°C at all times. On Day 14, the maturity of gametocytes was assessed by quantifying male gametogenesis (exflagellation). A 20 μl sample of gametocyte culture was mixed with equal volume of ookinete medium (complete culture medium supplemented with 0.1 μM xanthurenic acid) at room temperature and transferred to a haemocytometer. After 20 min at room temperature, exflagellation was accurately quantified as described in Delves et al. 2016 [17].
(§2) The Pf DGFA was performed as described in Delves et al. 2016 [17]. […] Plates were then incubated for 24 h at 37°C in a humidified box under a 1% O2/3% CO2/96% N2 gas mix. Gametogenesis was triggered by addition of 10 μl per well of ookinete medium + 0.27 μg ml^-1 Cy3-labelled anti-Pfs25 antibody. Plates were incubated on a metal block at 4°C for 4 min to ensure even cooling, then 28°C for a further 4 min. Exflagellation was recorded by capturing 10 frames over 1 s under brightfield illumination using a x4 objective with a 1.5x zoom (effectively x6) attached to an automated Nikon Ti fluorescence microscope. After recording exflagellation, plates were incubated for a further 24 h in the dark at 28°C to ensure maximal expression of Pfs25 by female gametes. The plates were then returned to the microscope and female gametes imaged at x6 using fluorescence microscopy.
(§3) Exflagellation centres and female gametes were quantified using custom image analysis pipelines developed within ICY Bioimage Analysis (https://icy.bioimageanalysis.org/).

[2] = system: P. falciparum male gametocytes; test: P. falciparum Dual Gamete Formation Assay (PfDGFA), male readout (exflagellation); format: cell-based, Plasmodium falciparum NF54; conditions: for Selectivity Ratio M: HepG2 Tox50 versus male IC50; for inhibition at 2 µM / pIC50: Plasmodium falciparum; for inhibition at 2 µM: 24h preincubation with gametocytes; for pIC50: PfDGFA, 24 h incubation with gametocytes before induction, exflagellation readout, read-out: Male IC50; for Activity: hit = >50% inhibition in male or female readout in at least 3 replicates, 0 = no class assigned
Experimental: as §1, §2, §3

[3] = PfDGFA at 2µM, average of replicates, read-out: Average inhibition female (%)
[4] = PfDGFA at 2µM, replicate R1, read-out: % inhibition female (individual replicates) R1
[5] = PfDGFA at 2µM, replicate R2, read-out: % inhibition female (individual replicates) R2
[6] = PfDGFA at 2µM, replicate R3, read-out: % inhibition female (individual replicates) R3
[7] = PfDGFA at 2µM, replicate R4, read-out: % inhibition female (individual replicates) R4
[8] = number of replicates with >50% inhibition in the female readout, 2µM
[9] = PfDGFA at 2µM, average of replicates, read-out: Average inhibition male (%)
[10] = PfDGFA at 2µM, replicate R1, read-out: % inhibition male (individual replicates) R1
[11] = PfDGFA at 2µM, replicate R2, read-out: % inhibition male (individual replicates) R2
[12] = PfDGFA at 2µM, replicate R3, read-out: % inhibition male (individual replicates) R3
[13] = PfDGFA at 2µM, replicate R4, read-out: % inhibition male (individual replicates) R4
[14] = number of replicates with >50% inhibition in the male readout, 2µM
[15] = PfDGFA at 2µM, 24h preincubation with gametocytes prior to induction of gametogenesis, replicate R1
[16] = PfDGFA at 2µM, 24h preincubation with gametocytes prior to induction of gametogenesis, replicate R3
[17] = PfDGFA at 2µM, 24h preincubation with gametocytes prior to induction of gametogenesis, replicate R4
[18] = PfDGFA at 2µM, 24h preincubation, average of replicates
[19] = 2µM, 24h preincubation with gametocytes prior to induction of gametogenesis, average of replicates
[20] = 2µM, 24h preincubation with gametocytes prior to induction of gametogenesis, replicate R1
[21] = 2µM, 24h preincubation with gametocytes prior to induction of gametogenesis, replicate R3
[22] = 2µM, 24h preincubation with gametocytes prior to induction of gametogenesis, replicate R4
[23] = 2µM, 24h preincubation, number of replicates with >50% inhibition in the female readout
[24] = 2µM, 24h preincubation, number of replicates with >50% inhibition in the male readout
[25] = 2µM, 24h preincubation, hits selected on >50% inhibition in the female readout across replicates
[26] = 2µM, 24h preincubation, hits selected on >50% inhibition in the male readout across replicates
[27] = PfDGFA at 2µM, 24h preincubation

SMILES	Selectivity ratio F [1]	inhibition at 2 µM [1, 3]	inhibition at 2 µM [1, 4]	inhibition at 2 µM [1, 5]	inhibition at 2 µM [1, 6]	inhibition at 2 µM [1, 7]	pIC50 [1]	HitlevelF [1, 8]	Selectivity Ratio M [2]	inhibition at 2 µM [2, 9]	inhibition at 2 µM [2, 10]	inhibition at 2 µM [2, 11]	inhibition at 2 µM [2, 12]	Average inhibition female (%) [1, 19]	% inhibition female (individual replicates) R1 [1, 20]	% inhibition female (individual replicates) R3 [1, 21]	% inhibition female (individual replicates) R4 [1, 22]	Average inhibition male (%) [2, 19]	% inhibition male (individual replicates) R1 [2, 20]	% inhibition male (individual replicates) R4 [2, 22]	other results
Cn1c(Sc2ncnc3sccc23)nc2ccccc21 [TCMDC-124514]	179.15	56.9%	48.2%	73.8%	37.5%	68.1%	6.25	2	138.65	74.4%	82.1%	75.9%	86.7%	–	–	–	–	–	–	–	inhibition at 2 µM [2, 13]: 52.9%; pIC50 [2]: 6.14; HitlevelM [2, 14]: 4
O=C(NC1CCN(Cc2ccccc2)CC1)c1cc(C(=O)NC2CCN(Cc3ccccc3)CC2)cc(C(=O)NC2CCN(Cc3ccccc3)CC2)c1 [TCMDC-124568]	10.00	37.6%	24.6%	60.5%	22.2%	43.3%	< 5.00	1	12.97	80%	85%	82%	68.9%	–	–	–	–	–	–	–	inhibition at 2 µM [2, 13]: 84.2%; pIC50 [2]: 5.11; HitlevelM [2, 14]: 4
COc1cc(C(=O)NC2CCc3ccccc32)cc(Cl)c1OC (centres unmarked) [TCMDC-124601]	–	–	–	–	–	–	–	–	–	–	–	–	–	–	–	–	–	–	–	–	% inhibition female (individual replicates) R1 [1, 15]: 1.9%; % inhibition female (individual replicates) R3 [1, 16]: -2.4%; % inhibition female (individual replicates) R4 [1, 17]: 1.9%; Average inhibition female (%) [1, 18]: -0.8%; % inhibition male (individual replicates) R1 [2, 15]: 0.65%; % inhibition male (individual replicates) R4 [2, 17]: 7.9%; Average inhibition male (%) [2, 18]: 1.1%
CN1CCC(N2CCC(Oc3cccc(C(=O)NCCCC4CCCC4)c3)CC2)CC1 [TCMDC-124677]	–	–	–	–	–	–	–	–	–	–	–	–	–	28.5%	33.3%	20.8%	15.0%	46.8%	55.2%	57.6%	HitlevelF [1, 23]: 0; % inhibition male (individual replicates) R3 [2, 21]: 20.7%; HitlevelM [2, 24]: 3
Cc1ccc(-n2cc(CNCC3CCN(CCO)CC3)c(-c3ccc(F)cc3)n2)cc1 [TCMDC-124689]	–	–	–	–	–	–	–	–	–	–	–	–	–	19.9%	20.1%	19.4%	10.0%	53.6%	49.0%	58.1%	HitlevelF [1, 23]: 0; HitlevelM [2, 24]: 2
O=C(c1ccc([N+](=O)[O-])o1)N1CCN(c2nc3c(F)cc(F)cc3s2)CC1 [TCMDC-125149]	–	–	–	–	–	–	–	–	–	–	–	–	–	6.5%	10.3%	-4.5%	0.07%	6.8%	35.5%	-11.8%	HitlevelF [1, 25]: 0; % inhibition male (individual replicates) R3 [2, 21]: -37.1%; HitlevelM [2, 26]: 0; Activity [2, 27]: 0
CNCCCNCc1ccc(-c2ccc(F)c(Cl)c2)o1.Cl [TCMDC-125237]	–	–	–	–	–	–	–	–	–	–	–	–	–	13.7%	17.7%	9.1%	15.1%	15.1%	6.0%	19.5%	HitlevelF [1, 25]: 0; HitlevelM [2, 26]: 0; Activity [2, 27]: 0
COCCn1c(Sc2ncnc3sccc23)nc2ccccc21 [TCMDC-125258]	94.48	60.4%	48.4%	75.4%	37.4%	80.3%	5.97	2	81.39	69.9%	86.4%	73.7%	49.8%	–	–	–	–	–	–	–	inhibition at 2 µM [2, 13]: 69.6%; pIC50 [2]: 5.91; HitlevelM [2, 14]: 3
NC(=O)c1ccsc1NC(=O)CNC(c1ccccc1)c1ccc(Cl)cc1 (centres unmarked) [TCMDC-125330]	–	–	–	–	–	–	–	–	–	–	–	–	–	–	–	–	–	–	–	–	% inhibition female (individual replicates) R1 [1, 15]: 0.32%; % inhibition female (individual replicates) R3 [1, 16]: -9.3%; % inhibition female (individual replicates) R4 [1, 17]: 6.9%; Average inhibition female (%) [1, 18]: 1.5%; % inhibition male (individual replicates) R1 [2, 15]: -5.4%; % inhibition male (individual replicates) R3 [2, 16]: -28.2%; % inhibition male (individual replicates) R4 [2, 17]: -28.5%; Average inhibition male (%) [2, 18]: -19.7%
O=C(Nc1nc(-c2ccccn2)cs1)c1ccc(S(=O)(=O)N2CCc3ccccc32)cc1 [TCMDC-125432]	–	–	–	–	–	–	–	–	–	–	–	–	–	23.2%	27.4%	14.7%	30.9%	-21.9%	-19.8%	-25.8%	HitlevelF [1, 23]: 0; % inhibition male (individual replicates) R3 [2, 21]: -49.6%; HitlevelM [2, 24]: 0
